Source: ChEMBL document CHEMBL4507317, “Data for DCP probe BAY-899” (2021)

What was measured:
[1] = target: GABA-A receptor; anion channel (Rattus norvegicus) (UniProt O09028+P15431+P18506+P18508+P19969+P20236+P23574+P23576+P28471+P28473+P30191+P62813+P63079+P63138+Q91ZM7+Q9ES14); settings: Compound concentration 10.0 uM
[2] = target: Mast/stem cell growth factor receptor Kit (Homo sapiens) (UniProt P10721); settings: Compound concentration 1000.0 nM
[3] = target: Rhodopsin kinase GRK7 (Homo sapiens) (UniProt Q8WTQ7); settings: Compound concentration 1000.0 nM
[4] = target: Tyrosine-protein kinase receptor TYRO3 (Homo sapiens) (UniProt Q06418); settings: Compound concentration 1000.0 nM
[5] = target: Cyclin-dependent kinase 8 (Homo sapiens) (UniProt P49336); settings: Compound concentration 1000.0 nM
[6] = target: Phosphatidylinositol 4-phosphate 3-kinase C2 domain-containing subunit beta (Homo sapiens) (UniProt O00750); settings: Compound concentration 1000.0 nM
[7] = target: D(1A) dopamine receptor (Homo sapiens) (UniProt P21728); settings: Compound concentration 10.0 uM
[8] = test system: Phosphatidylinositol 4,5-bisphosphate 3-kinase catalytic subunit alpha isoform (Homo sapiens), P42336 [E542K]; settings: Compound concentration 1000.0 nM
[9] = target: Mitogen-activated protein kinase kinase kinase kinase 4 (Homo sapiens) (UniProt O95819); settings: Compound concentration 1000.0 nM
[10] = target: Casein kinase I isoform gamma-3 (Homo sapiens) (UniProt Q9Y6M4); settings: Compound concentration 1000.0 nM
[11] = target: Beta-1 adrenergic receptor (Homo sapiens) (UniProt P08588); settings: Compound concentration 10.0 uM
[12] = test system: Tyrosine-protein kinase ABL1 (Homo sapiens), P00519 [F317L]; settings: Compound concentration 1000.0 nM
[13] = target: Serine/threonine-protein kinase D3 (Homo sapiens) (UniProt O94806); settings: Compound concentration 1000.0 nM
[14] = target: 5-hydroxytryptamine receptor 2C (Homo sapiens) (UniProt P28335); settings: Compound concentration 10.0 uM
[15] = test system: Mast/stem cell growth factor receptor Kit (Homo sapiens), P10721 [V559D,T670I]; settings: Compound concentration 1000.0 nM
[16] = target: G protein-coupled receptor kinase 3 (Homo sapiens) (UniProt P35626); settings: Compound concentration 1000.0 nM
[17] = target: Vascular endothelial growth factor receptor 3 (Homo sapiens) (UniProt P35916); settings: Compound concentration 1000.0 nM
[18] = target: Dual specificity testis-specific protein kinase 1 (Homo sapiens) (UniProt Q15569); settings: Compound concentration 1000.0 nM
[19] = target: Serine/threonine-protein kinase PAK 6 (Homo sapiens) (UniProt Q9NQU5); settings: Compound concentration 1000.0 nM
[20] = target: Tyrosine-protein kinase Lck (Homo sapiens) (UniProt P06239); settings: Compound concentration 1000.0 nM
[21] = target: Serine/threonine-protein kinase haspin (Homo sapiens) (UniProt Q8TF76); settings: Compound concentration 1000.0 nM
[22] = target: Myosin light chain kinase, smooth muscle (Homo sapiens) (UniProt Q15746); settings: Compound concentration 1000.0 nM
[23] = target: Alpha-1B adrenergic receptor (Homo sapiens) (UniProt P35368); settings: Compound concentration 10.0 uM
[24] = test system: Receptor-type tyrosine-protein kinase FLT3 (Homo sapiens), P36888 [UNDEFINED MUTATION]; settings: Compound concentration 1000.0 nM
[25] = target: Phosphatidylinositol 4,5-bisphosphate 3-kinase catalytic subunit delta isoform (Homo sapiens) (UniProt O00329); settings: Compound concentration 1000.0 nM
[26] = target: cGMP-dependent protein kinase 1 (Homo sapiens) (UniProt Q13976); settings: Compound concentration 1000.0 nM
[27] = target: NUAK family SNF1-like kinase 1 (Homo sapiens) (UniProt O60285); settings: Compound concentration 1000.0 nM
[28] = target: Kappa-type opioid receptor (Homo sapiens, UniProt P41145); assay: GPCRScan assay: inhibition of KOR; set-up: radioligand conc. used [nm] 0.6 – 1.2, parental cells stable HEK
[29] = test system: Mast/stem cell growth factor receptor Kit (Homo sapiens), P10721 [V559D,V654A]; settings: Compound concentration 1000.0 nM
[30] = target: Serine/threonine-protein kinase PAK 3 (Homo sapiens) (UniProt O75914); settings: Compound concentration 1000.0 nM
[31] = target: High affinity nerve growth factor receptor (Homo sapiens) (UniProt P04629); settings: Compound concentration 1000.0 nM
[32] = target: cAMP-dependent protein kinase catalytic subunit alpha (Homo sapiens) (UniProt P17612); settings: Compound concentration 1000.0 nM
[33] = target: Ribosomal protein S6 kinase alpha-6 (Homo sapiens) (UniProt Q9UK32); settings: Compound concentration 1000.0 nM
[34] = target: Sodium-dependent noradrenaline transporter (Homo sapiens) (UniProt P23975); settings: Compound concentration 10.0 uM
[35] = target: Rho-associated protein kinase 2 (Homo sapiens) (UniProt O75116); settings: Compound concentration 1000.0 nM
[36] = target: Leucine-rich repeat serine/threonine-protein kinase 2 (Homo sapiens) (UniProt Q5S007); settings: Compound concentration 1000.0 nM
[37] = target: Casein kinase I isoform alpha (Homo sapiens) (UniProt P48729); settings: Compound concentration 1000.0 nM
[38] = test system: Phosphatidylinositol 4,5-bisphosphate 3-kinase catalytic subunit alpha isoform (Homo sapiens), P42336 [C420R]; settings: Compound concentration 1000.0 nM
[39] = test system: Epidermal growth factor receptor (Homo sapiens), P00533 [UNDEFINED MUTATION]; settings: Compound concentration 1000.0 nM
[40] = target: Casein kinase I isoform gamma-1 (Homo sapiens) (UniProt Q9HCP0); settings: Compound concentration 1000.0 nM
[41] = target: Non-receptor tyrosine-protein kinase TYK2 (Homo sapiens) (UniProt P29597); settings: Compound concentration 1000.0 nM
[42] = target: Serine/threonine-protein kinase VRK2 (Homo sapiens) (UniProt Q86Y07); settings: Compound concentration 1000.0 nM
[43] = target: Ribosomal protein S6 kinase alpha-3 (Homo sapiens) (UniProt P51812); settings: Compound concentration 1000.0 nM

Sequence of Phosphatidylinositol 4,5-bisphosphate 3-kinase catalytic subunit alpha isoform (Homo sapiens), P42336 [E542K] (P42336 whole entry E542K, canonical isoform): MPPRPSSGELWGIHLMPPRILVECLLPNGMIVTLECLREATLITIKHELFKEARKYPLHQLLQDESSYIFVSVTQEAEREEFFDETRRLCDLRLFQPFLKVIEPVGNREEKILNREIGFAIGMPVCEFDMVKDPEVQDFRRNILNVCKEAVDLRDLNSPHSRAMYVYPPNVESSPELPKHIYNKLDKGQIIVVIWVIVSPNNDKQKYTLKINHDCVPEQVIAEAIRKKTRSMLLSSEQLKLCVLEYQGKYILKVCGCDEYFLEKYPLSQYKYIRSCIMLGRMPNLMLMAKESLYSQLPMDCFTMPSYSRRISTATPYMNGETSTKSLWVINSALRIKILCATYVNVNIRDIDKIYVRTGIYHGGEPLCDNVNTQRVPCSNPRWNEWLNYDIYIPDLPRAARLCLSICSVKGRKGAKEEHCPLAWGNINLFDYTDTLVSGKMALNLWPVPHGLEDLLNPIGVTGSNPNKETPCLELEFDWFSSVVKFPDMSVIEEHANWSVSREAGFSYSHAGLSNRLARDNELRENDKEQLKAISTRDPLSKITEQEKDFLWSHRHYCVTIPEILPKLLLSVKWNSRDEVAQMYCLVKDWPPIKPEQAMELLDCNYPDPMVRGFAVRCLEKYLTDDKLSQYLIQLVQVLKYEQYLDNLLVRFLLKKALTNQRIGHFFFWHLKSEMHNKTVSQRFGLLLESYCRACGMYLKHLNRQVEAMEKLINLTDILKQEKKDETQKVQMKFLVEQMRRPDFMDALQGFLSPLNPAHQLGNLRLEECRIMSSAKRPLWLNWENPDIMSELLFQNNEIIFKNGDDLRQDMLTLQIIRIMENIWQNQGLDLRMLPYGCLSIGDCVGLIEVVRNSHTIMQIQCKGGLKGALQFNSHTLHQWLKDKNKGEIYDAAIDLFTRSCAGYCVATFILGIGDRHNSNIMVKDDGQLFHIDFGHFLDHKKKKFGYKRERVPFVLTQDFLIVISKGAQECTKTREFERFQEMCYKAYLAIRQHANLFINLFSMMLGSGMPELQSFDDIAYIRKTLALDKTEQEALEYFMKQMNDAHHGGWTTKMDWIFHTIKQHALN
Sequence of High affinity nerve growth factor receptor (Homo sapiens) (P04629 33-796 limits assumed): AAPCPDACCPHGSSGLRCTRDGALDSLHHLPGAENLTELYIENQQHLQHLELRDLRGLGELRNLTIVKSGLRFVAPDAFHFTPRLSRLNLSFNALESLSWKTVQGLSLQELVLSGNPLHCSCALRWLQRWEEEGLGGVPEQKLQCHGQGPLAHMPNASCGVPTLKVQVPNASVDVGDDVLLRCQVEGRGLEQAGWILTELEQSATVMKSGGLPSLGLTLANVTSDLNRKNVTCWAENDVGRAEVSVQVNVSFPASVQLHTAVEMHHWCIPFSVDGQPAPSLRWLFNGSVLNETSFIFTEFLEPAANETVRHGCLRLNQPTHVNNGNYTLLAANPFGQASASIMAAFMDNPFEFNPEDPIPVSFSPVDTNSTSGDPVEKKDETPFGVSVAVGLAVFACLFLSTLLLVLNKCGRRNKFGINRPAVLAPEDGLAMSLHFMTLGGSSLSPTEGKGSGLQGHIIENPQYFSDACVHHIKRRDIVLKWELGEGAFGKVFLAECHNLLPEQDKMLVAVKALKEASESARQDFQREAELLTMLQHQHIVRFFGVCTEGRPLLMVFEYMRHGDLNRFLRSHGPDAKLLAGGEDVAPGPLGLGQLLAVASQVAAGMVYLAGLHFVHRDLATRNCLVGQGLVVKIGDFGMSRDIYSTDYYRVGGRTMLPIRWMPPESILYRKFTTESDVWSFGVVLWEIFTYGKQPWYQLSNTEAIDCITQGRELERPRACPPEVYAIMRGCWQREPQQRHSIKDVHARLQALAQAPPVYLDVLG
Sequence of Mast/stem cell growth factor receptor Kit (Homo sapiens), P10721 [V559D,V654A] (P10721 whole entry V559D/V654A): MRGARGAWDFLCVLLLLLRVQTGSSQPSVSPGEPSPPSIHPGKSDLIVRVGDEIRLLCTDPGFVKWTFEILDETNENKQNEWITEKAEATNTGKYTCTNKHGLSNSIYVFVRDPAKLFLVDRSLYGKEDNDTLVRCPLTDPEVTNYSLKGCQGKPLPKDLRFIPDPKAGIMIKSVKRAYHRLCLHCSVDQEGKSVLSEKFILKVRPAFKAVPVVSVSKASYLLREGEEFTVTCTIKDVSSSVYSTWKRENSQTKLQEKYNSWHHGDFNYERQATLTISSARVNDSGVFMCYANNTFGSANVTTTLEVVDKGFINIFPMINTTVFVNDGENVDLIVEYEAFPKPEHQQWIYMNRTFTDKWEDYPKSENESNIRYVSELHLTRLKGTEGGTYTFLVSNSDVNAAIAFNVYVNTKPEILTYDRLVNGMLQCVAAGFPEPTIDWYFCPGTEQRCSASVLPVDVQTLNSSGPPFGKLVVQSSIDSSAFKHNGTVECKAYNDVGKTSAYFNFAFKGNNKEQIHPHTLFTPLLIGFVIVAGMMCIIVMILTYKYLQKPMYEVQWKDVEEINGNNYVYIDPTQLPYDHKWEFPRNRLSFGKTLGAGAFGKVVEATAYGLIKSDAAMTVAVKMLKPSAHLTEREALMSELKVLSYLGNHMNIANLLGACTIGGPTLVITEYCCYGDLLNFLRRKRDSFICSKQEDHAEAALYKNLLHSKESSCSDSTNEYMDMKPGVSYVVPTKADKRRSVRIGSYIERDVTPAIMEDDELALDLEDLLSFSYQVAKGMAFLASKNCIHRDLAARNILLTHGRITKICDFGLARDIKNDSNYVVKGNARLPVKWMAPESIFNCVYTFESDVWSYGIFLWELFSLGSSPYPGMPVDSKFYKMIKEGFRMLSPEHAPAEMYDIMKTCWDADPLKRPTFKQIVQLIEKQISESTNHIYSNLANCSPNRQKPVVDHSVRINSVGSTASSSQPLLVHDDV
Sequence of Serine/threonine-protein kinase D3 (Homo sapiens) (O94806 whole entry): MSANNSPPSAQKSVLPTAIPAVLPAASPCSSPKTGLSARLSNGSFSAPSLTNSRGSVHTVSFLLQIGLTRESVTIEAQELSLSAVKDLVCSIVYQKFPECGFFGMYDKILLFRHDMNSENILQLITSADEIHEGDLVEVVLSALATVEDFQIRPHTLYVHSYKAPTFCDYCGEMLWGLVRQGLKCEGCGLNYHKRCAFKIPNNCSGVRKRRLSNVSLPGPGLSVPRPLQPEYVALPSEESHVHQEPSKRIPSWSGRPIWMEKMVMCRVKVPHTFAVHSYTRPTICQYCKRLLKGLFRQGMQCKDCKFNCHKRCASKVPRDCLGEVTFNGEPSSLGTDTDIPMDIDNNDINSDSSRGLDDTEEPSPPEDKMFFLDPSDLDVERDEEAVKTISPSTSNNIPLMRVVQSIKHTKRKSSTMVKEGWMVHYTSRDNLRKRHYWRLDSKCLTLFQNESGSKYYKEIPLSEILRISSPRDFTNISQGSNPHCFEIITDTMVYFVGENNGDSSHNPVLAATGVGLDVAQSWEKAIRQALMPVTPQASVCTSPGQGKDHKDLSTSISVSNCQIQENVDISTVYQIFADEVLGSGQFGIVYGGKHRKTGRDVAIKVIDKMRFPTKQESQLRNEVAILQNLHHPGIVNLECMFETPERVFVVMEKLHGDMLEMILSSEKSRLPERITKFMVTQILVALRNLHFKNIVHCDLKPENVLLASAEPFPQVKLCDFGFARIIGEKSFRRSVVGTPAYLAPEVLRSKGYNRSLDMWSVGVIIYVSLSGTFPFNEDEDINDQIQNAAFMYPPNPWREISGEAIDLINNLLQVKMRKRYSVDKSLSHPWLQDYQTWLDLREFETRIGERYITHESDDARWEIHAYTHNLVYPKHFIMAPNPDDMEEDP
Sequence of Dual specificity testis-specific protein kinase 1 (Homo sapiens) (Q15569 whole entry, looked up): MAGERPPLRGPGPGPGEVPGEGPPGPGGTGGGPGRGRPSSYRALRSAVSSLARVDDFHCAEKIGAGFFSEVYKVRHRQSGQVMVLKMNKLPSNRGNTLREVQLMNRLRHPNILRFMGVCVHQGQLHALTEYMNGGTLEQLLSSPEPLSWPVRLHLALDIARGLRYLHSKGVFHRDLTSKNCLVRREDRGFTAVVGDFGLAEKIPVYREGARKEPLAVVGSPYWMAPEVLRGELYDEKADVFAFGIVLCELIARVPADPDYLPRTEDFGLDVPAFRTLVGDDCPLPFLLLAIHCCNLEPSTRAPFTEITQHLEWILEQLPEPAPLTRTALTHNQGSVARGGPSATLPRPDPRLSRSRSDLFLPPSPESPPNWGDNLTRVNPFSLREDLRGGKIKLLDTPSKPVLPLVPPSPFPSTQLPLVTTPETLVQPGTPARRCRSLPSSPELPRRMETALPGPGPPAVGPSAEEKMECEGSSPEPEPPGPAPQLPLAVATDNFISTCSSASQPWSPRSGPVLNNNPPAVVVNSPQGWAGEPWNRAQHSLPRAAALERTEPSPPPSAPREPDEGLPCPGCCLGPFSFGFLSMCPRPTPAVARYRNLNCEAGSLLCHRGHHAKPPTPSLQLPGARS
Sequence of NUAK family SNF1-like kinase 1 (Homo sapiens) (O60285 whole entry): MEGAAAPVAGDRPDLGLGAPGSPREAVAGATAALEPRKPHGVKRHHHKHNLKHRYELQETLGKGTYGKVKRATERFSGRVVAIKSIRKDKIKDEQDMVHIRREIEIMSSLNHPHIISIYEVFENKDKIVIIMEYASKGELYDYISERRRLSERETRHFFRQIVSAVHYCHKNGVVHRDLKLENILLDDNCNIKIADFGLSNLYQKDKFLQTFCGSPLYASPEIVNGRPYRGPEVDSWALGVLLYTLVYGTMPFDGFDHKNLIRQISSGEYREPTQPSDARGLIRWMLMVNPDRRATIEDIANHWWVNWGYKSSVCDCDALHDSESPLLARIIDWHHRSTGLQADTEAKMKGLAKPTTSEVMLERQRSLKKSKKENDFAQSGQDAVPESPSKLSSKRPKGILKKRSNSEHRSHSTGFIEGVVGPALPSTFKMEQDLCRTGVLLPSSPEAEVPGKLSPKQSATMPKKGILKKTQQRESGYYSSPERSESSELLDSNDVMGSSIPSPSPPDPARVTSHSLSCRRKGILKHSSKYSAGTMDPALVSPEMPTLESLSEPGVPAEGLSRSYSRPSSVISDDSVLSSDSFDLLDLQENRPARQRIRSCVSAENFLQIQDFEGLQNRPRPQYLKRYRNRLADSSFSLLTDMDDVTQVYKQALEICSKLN

**Q.** What does the source list for `O=C(Nc1cnc(Oc2ccc(F)cc2)nc1)N1CCc2ncccc2[C@@H]1c1ccc(F)cc1` [BAY-899]?
**A.** inhibition [1]: 26%; residual activity [2]: 100%; residual activity [3]: 100%; residual activity [4]: 100%; residual activity [5]: 70%; residual activity [6]: 95%; inhibition [7]: 23.7%; residual activity [8]: 81%; residual activity [9]: 86%; residual activity [10]: 87%; inhibition [11]: 11.3%; residual activity [12]: 81%; residual activity [13]: 84%; inhibition [14]: 18.3%; residual activity [15]: 84%; residual activity [16]: 96%; residual activity [17]: 96%; residual activity [18]: 91%; residual activity [19]: 100%; residual activity [20]: 83%; residual activity [21]: 93%; residual activity [22]: 100%; inhibition [23]: -4.4%; residual activity [24]: 92%; residual activity [25]: 100%; residual activity [26]: 89%; residual activity [27]: 95%; Ki [28]: 7.63 µM; residual activity [29]: 84%; residual activity [30]: 100%; residual activity [31]: 100%; residual activity [32]: 82%; residual activity [33]: 82%; inhibition [34]: 10.2%; residual activity [35]: 100%; residual activity [36]: 83%; residual activity [37]: 85%; residual activity [38]: 100%; residual activity [39]: 70%; residual activity [40]: 99%; residual activity [41]: 100%; residual activity [42]: 100%; residual activity [43]: 91%

**Q.** `O=C(Nc1ccc(Oc2ccc(F)cc2)cc1)N1CCc2ncccc2[C@H]1c1ccc(F)cc1` [BAY-897] was tested. Which inhibition [1] did it give?
**A.** The inhibition was 22.4%.

**Q.** What about the residual activity [2] of the same compound?
**A.** The residual activity was 97%.

**Q.** And the residual activity [3]?
**A.** Its residual activity is 100%.

**Q.** And the residual activity [4]?
**A.** The residual activity was 99%.

**Q.** And the residual activity [5]?
**A.** Its residual activity is 95%.

**Q.** What about the residual activity [6] of the same compound?
**A.** The residual activity was 96%.

**Q.** What about the inhibition [7] of the same compound?
**A.** Its inhibition is 39.1%.

**Q.** And the residual activity [8]?
**A.** Its residual activity is 71%.

**Q.** And the residual activity [9]?
**A.** Its residual activity is 100%.

**Q.** What about the residual activity [10] of the same compound?
**A.** Its residual activity is 80%.

**Q.** What about the inhibition [11] of the same compound?
**A.** Its inhibition is -7.28%.

**Q.** What about the residual activity [12] of the same compound?
**A.** The residual activity was 70%.

**Q.** What about the residual activity [13] of the same compound?
**A.** Its residual activity is 98%.

**Q.** What about the inhibition [14] of the same compound?
**A.** Its inhibition is 68.4%.

**Q.** What about the residual activity [15] of the same compound?
**A.** The residual activity was 85%.

**Q.** And the residual activity [16]?
**A.** Its residual activity is 95%.

**Q.** And the residual activity [17]?
**A.** Its residual activity is 96%.

**Q.** What about the residual activity [18] of the same compound?
**A.** The residual activity was 100%.

**Q.** And the residual activity [19]?
**A.** Its residual activity is 100%.

**Q.** What about the residual activity [20] of the same compound?
**A.** The residual activity was 94%.

**Q.** What about the residual activity [21] of the same compound?
**A.** The residual activity was 85%.

**Q.** And the residual activity [22]?
**A.** The residual activity was 100%.

**Q.** And the inhibition [23]?
**A.** The inhibition was 12.2%.

**Q.** And the residual activity [24]?
**A.** Its residual activity is 99%.

**Q.** And the residual activity [25]?
**A.** The residual activity was 93%.

**Q.** What about the residual activity [26] of the same compound?
**A.** The residual activity was 91%.

**Q.** And the residual activity [27]?
**A.** Its residual activity is 92%.

**Q.** And the Ki [28]?
**A.** Its Ki is 3.13 µM.

**Q.** And the residual activity [29]?
**A.** Its residual activity is 90%.

**Q.** What about the residual activity [30] of the same compound?
**A.** The residual activity was 100%.

**Q.** And the residual activity [31]?
**A.** Its residual activity is 85%.

**Q.** And the residual activity [32]?
**A.** Its residual activity is 95%.

**Q.** What about the residual activity [33] of the same compound?
**A.** The residual activity was 95%.

**Q.** And the inhibition [34]?
**A.** Its inhibition is 32.5%.

**Q.** What about the residual activity [35] of the same compound?
**A.** The residual activity was 93%.

**Q.** And the residual activity [36]?
**A.** Its residual activity is 76%.

**Q.** And the residual activity [37]?
**A.** Its residual activity is 97%.

**Q.** And the residual activity [38]?
**A.** The residual activity was 100%.

**Q.** What about the residual activity [39] of the same compound?
**A.** Its residual activity is 80%.

**Q.** What about the residual activity [40] of the same compound?
**A.** Its residual activity is 90%.

**Q.** What about the residual activity [41] of the same compound?
**A.** Its residual activity is 100%.

**Q.** And the residual activity [42]?
**A.** Its residual activity is 97%.

**Q.** And the residual activity [43]?
**A.** The residual activity was 97%.
